Legend:
[1] = molecular target: T1, recombinant human Meningioma Expressed Antigen 5 (MGEA5), also referred to as O-GlcNAcase (OGA) (Homo sapiens, UniProt O60502); test: OGA biochemical assay (inhibition of FM-GlcNAc hydrolysis, fluorescence); conditions: for Emax: read-out: Enzymatic Emax (%); for IC50: read-out: Enzymatic hOGA, pIC50 (converted)
T1 construct: Full length OGA enzyme was purchased at OriGene (cat #TP322411); purchased OriGene TP322411
T1 sequence (O60502 1-916): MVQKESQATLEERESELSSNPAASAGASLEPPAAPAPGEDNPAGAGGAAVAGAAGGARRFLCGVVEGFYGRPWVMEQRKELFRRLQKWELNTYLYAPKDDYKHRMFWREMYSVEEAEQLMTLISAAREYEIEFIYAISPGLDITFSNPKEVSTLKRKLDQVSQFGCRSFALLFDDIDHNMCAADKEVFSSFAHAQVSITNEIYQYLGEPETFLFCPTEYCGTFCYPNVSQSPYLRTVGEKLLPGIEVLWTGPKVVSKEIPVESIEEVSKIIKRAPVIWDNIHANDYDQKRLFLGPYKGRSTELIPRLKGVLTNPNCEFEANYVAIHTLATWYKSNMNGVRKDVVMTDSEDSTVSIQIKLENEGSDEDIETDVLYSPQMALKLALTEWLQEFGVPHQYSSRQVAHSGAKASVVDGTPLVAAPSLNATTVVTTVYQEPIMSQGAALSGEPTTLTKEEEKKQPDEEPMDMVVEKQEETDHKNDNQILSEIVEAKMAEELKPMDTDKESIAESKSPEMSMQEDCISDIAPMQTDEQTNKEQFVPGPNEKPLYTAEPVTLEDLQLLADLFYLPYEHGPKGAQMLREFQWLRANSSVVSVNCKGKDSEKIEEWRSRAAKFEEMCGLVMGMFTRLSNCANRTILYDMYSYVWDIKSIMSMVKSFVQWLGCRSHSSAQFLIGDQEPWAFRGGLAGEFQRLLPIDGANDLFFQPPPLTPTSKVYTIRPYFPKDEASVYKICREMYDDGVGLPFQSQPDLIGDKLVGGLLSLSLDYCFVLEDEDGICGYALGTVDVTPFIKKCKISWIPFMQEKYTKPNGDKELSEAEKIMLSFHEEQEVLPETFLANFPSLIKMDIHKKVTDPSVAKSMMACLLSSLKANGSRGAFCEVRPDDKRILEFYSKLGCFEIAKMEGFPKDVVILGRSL
Method in brief: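 Full-length OGA at 2 nM was pre-incubated 60 min at room temperature with compound, then FM-GlcNAc at 100 uM final was added in citrate/phosphate buffer pH 7.2 with 0.005% Tween-20. After 6 h at room temperature, carbonate pH 11.0 stopped the reaction. Fluorescence read at 485/538 nm; IC50 and Hill coefficient from curve fit against no-inhibitor and saturating-standard controls.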

Compound	Emax [1] [%]	IC50 [1] [nM]	melting point [°C]
Cc1cc(OC2CCN([C@@H](C)c3nc4nc(C)sc4cc3F)CC2)cc(C)n1 (single isomer, unassigned) [Compound 83]	101	5.01	–
Cc1cc(OC2CCN([C@H](C)c3nc4c(cc3F)OCCO4)CC2)cc(C)n1 (single isomer, unassigned) [Compound 148]	98	6.31	–
Cc1ncc(OC2CCN(C(C)c3nc4c(cc3F)CCO4)CC2)cn1 (stereo not drawn) [Compound 95]	96	5.01	127.82
Cc1cc(OC2CCN([C@H](C)c3nc4c(cc3F)CCO4)CC2)cc(C)n1 (single isomer, unassigned) [Compound 144]	97	3.16	–

Reference: patent US20210122763A1, “OGA INHIBITOR COMPOUNDS” (Janssen Pharmaceutica NV, priority 2018, published 2021)
